In ChEMBL document CHEMBL1129134, “DNA threading agents: effect of sidechain bulk on DNA binding and cytotoxicity of 9-anilinoacridine-4-carboxamides” (Bioorg Med Chem Lett, 1996):

tested on: HT-29; test: Compound was tested for biological activity against human colon carcinoma cell line HT-29/219; format: functional, cell-based

IC50 [µM]	SMILES
9.8	COc1cc(NS(C)(=O)=O)ccc1Nc1c2ccccc2nc2c(C(=O)NC34C[C@H]5C[C@@H](C3)C[C@@H](C4)C5)cccc12
5.2	Nc1c2ccccc2nc2c(C(=O)NC3CCCCCCC3)cccc12
0.57	Nc1c2ccccc2nc2c(C(=O)NC34C[C@H]5C[C@@H](C3)C[C@@H](C4)C5)cccc12
5.8	COc1cc(NS(C)(=O)=O)ccc1Nc1c2ccccc2nc2c(C(=O)NC3CCCCCCC3)cccc12
0.14	CN(C)CCNC(=O)c1cccc2c(N)c3ccccc3nc12
5.8	Nc1c2ccccc2nc2c(C(=O)NC3CC3)cccc12
5.6	Nc1c2ccccc2nc2c(C(=O)NC3CCCCC3)cccc12
4.7	COc1cc(NS(C)(=O)=O)ccc1Nc1c2ccccc2nc2c(C(=O)NC3CCCCC3)cccc12
3.3	COc1cc(NS(C)(=O)=O)ccc1Nc1c2ccccc2nc2c(C(=O)NC3CCCCCCCCCCC3)cccc12
3.6	COc1cc(NS(C)(=O)=O)ccc1Nc1c2ccccc2nc2c(C(=O)NC3CC3)cccc12
7.7	Nc1c2ccccc2nc2c(C(=O)NC3CCCCCCCCCCC3)cccc12
0.061	COc1cc(NS(C)(=O)=O)ccc1Nc1c2ccccc2nc2c(C(=O)NCCN(C)C)cccc12
